For 4 compounds, IC50 and melting point results are on record in article PMC9863136, “Synthesis and DNase I Inhibitory Properties of New Squaramides” (Molecules, 2023).

The target in data set [1] is bovine pancreatic DNase I (Bos taurus, UniProt P00639). The data set is described as follows: in vitro DNase I inhibition assay (spectrophotometric, absorbance of oligonucleotides at 260 nm). Type of data set: biochemical. The protocol:
Compounds 3a–c were included in an in vitro DNase I inhibition assay.
Evaluation of DNase I inhibition. In vitro determination of the inhibitory activity of compounds 3a–c against bovine pancreatic DNase I was performed using the spectrophotometric method described by Kolarević et al., which is based on measuring the absorbance of the formed oligonucleotides at 260 nm.

The IC50 is the concentration that inhibits the measured activity by half. One may read the melting point as the temperature, or range, at which the solid turns liquid.

Sequence of bovine pancreatic DNase I (P00639 23-282): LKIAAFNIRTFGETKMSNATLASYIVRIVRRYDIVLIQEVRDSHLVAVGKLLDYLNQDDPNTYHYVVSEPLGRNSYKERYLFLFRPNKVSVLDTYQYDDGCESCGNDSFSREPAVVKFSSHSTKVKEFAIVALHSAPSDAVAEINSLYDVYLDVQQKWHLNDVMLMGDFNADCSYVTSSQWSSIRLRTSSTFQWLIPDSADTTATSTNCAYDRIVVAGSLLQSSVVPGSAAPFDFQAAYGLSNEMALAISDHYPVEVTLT

In data set [1], `CCOc1c(NC(C)Cc2cccnc2)c(=O)c1=O` (centres unmarked) [Compound 3c, 3-Ethoxy-4-((1-(pyridin-3-yl)propan-2-yl)amino)cyclobut-3-ene-1,2-dione] registered an IC50 of 48 ± 7.98 µM. Same read-out and setting: for `CN(C)c1ccc(C(=C2C=CC(=[N+](C)C)C=C2)c2ccc(N(C)C)cc2)cc1` [crystal violet, reference compound] the value was 358 ± 40.7 µM.

As for `CCOc1c(NCCc2cccnc2)c(=O)c1=O` [Compound 3a], the melting point lay within 139.8 to 141.2 °C. Also, in data set [1], the half-maximal inhibitory concentration (IC50) worked out at 54.5 ± 8.07 µM. Compound `CCOc1c(NCCc2ccncc2)c(=O)c1=O` [Compound 3b] yielded a half-maximal inhibitory concentration (IC50) in data set [1] of 57.8 ± 9.67 µM.
